Reference: publication PMC5640644, “HDX reveals the conformational dynamics of DNA sequence specific VDR co-activator interactions” (Nature Communications, 2017)

Biological target: T1, VDRRXRα heterodimer (Homo sapiens, UniProt P11473, DEL151-190)
T1 construct: Full-length WT His-hVDR (Δ (151–190)) and WT Flag-h RXRα were expressed in a baculovirus system; His; made in house; host or cells: baculovirus system (VDR, RXRα); Escherichia coli BL21 DE3 (SRC1 RID)
T1 sequence (P11473 with tags, fused parts or gaps DEL151-190): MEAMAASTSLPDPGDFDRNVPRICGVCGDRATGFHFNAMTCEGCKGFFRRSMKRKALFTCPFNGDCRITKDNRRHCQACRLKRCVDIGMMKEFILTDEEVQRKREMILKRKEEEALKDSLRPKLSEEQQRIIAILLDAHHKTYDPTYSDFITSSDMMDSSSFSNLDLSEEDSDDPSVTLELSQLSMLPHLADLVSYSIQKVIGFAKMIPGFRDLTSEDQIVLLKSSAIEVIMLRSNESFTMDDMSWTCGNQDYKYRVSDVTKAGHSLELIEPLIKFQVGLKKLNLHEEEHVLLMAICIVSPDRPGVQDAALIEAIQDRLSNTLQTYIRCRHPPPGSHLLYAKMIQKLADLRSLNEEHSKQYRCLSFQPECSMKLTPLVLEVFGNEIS
T1 sequence (P19793 1-462 partner): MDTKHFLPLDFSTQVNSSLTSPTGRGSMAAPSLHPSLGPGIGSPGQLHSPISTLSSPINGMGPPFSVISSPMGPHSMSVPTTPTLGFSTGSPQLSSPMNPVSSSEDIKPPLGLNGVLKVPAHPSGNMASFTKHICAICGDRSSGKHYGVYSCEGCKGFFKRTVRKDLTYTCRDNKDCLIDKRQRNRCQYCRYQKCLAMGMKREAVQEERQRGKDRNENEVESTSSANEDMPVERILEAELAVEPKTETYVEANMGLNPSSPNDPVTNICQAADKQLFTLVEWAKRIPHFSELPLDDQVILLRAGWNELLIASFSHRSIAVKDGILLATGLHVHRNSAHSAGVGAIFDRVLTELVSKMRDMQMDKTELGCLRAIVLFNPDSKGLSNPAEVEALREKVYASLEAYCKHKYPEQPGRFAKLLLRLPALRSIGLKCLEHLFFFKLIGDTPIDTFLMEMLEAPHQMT
T1 sequence (Q15788 627-786 partner limits assumed): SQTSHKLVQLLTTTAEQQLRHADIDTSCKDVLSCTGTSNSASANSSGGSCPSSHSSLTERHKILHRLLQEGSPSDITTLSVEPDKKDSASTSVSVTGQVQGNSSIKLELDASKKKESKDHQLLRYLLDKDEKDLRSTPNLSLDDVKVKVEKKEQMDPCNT
Assay: Differential HDX-MS of liganded full-length VDRRXRα heterodimer with DNA VBS and SRC1 RID
Type: binding
Conditions: for decrease in solvent exchange within H12 of VDR upon SRC1 RID binding: ligand-heterodimer-DR3 or -DR3 half-site complex (both alike), aa412−419 for Cmpd1; for ΔΔHDX in the VDR hinge region (aa97−108): ΔHDX heterodimer:agonist ± DR3 minus ΔHDX heterodimer:agonist ± DR3 half-site
Procedure: The final protein buffer was 50 mM Tris (pH 8.0), 150 mM NaCl, 10% glycerol and 2 mM DTT.
The DR3 VBS 5′-[…]-3′, DR3 half-site VBS 5′-[…]-3′, BGLAP VBS 5′-[…]-3′, BGLAP* VBS 5′-[…]-3′ and TRPV6 VBS 5′-[…]-3′ duplex oligonucleotides were purchased from Integrated DNA Technologies. […] SRC1 RID was added in a 2× molar ratio to heterodimer, and oligonucleotide (VBS) was mixed with the protein complex as needed (1.5× molar ratio). […]
Solution-phase amide HDX experiments were carried out with a fully automated system (CTC HTS PAL, LEAP Technologies, Carrboro, NC; housed inside a 4 °C cabinet) as follows.
HDX-MS analysis: 10 μM of the apo protein was mixed with 1:10 molar excess of ligand and incubated for 2 h at 4 °C for complex formation before subjecting them to HDX analysis. For the differential HDX experiments, 5 μl of either the apo or the liganded protein complex with DNA and SRC1 RID were mixed with 20 μl of D2O-containing HDX buffer (50 mM Tris, pH 8.0, 150 mM NaCl, and 2 mM DTT) and incubated at 4 °C for 0 s, 10 s, 30 s, 60 s, 300 s, 900 s, or 3,600 s. Following on-exchange, unwanted forward-exchange or back-exchange was minimized and the protein was denatured by the addition of 25 μl of a quench solution (1% v/v TFA in 3 M urea and 50 mM TCEP). Samples were then immediately passed through an immobilized pepsin column (prepared in house) at 50 μl min-1 (0.1% v/v TFA, 15 °C) and the resulting peptides were trapped and desalted on a 1.0 mm × 10 mm C8 trap column (Hypersil Gold, Thermo Fisher, Grand Island, NY). The bound peptides were then gradient-eluted (5–50% CH3CN v/v and 0.3% v/v formic acid) across a 1.0 mm × 50 mm C18 separation column (Hypersil Gold, Thermo Fisher, Grand Island, NY) for 6 min. Sample handling and peptide separation were conducted at 4 °C. The eluted peptides were then subjected to electrospray ionization directly coupled to a high resolution Orbitrap mass spectrometer (LTQ Orbitrap XL with ETD, Q Exactive, or Exactive, Thermo Fisher Scientific, San Jose, CA). Each HDX experiment was carried out in triplicate with a single preparation of each protein-ligand complex. The intensity weighted mean m/z centroid value of each peptide envelope was calculated and subsequently converted into a percentage of deuterium incorporation. This is accomplished by determining the observed averages of the undeuterated and fully deuterated spectra using the conventional formula described elsewhere. […] Statistical significance for the differential HDX data is determined by an unpaired t-test for each time point, a procedure that is integrated into the HDX Workbench software.
Data Statistics: Deuterium uptake for each peptide is calculated as the average of % D for all on-exchange time points and the difference in average %D values between the apo and ligand bound samples is presented as a heat map with a color code given at the bottom of the figure (warm colors for deprotection and cool colors for protection). […] Peptides with non-significant changes between the two states are colored gray. The exchange at the first two residues for any given peptide is not colored.

[1] = both ligand-heterodimer-VBS complexes (DR3, DR3 half-site)

SMILES	decreased exchange for H1 of VDR upon SRC1 RID interaction [1]	decreased exchange for H3 of VDR upon SRC1 RID interaction [1]	decrease in solvent exchange within H12 of VDR upon SRC1 RID binding	ΔΔHDX in the VDR hinge region (aa97−108)	further reduction in deuterium exchange of VDR AF2 H12 upon binding of TRPV6 VBS (ligand-bound heterodimer, not observed upon binding the BGLAP VBS)	protection to solvent exchange at VDR AF2 surface upon SRC1 RID interaction (ligand-heterodimer-BGLAP VBS complex)	protection to solvent exchange at VDR AF2 surface upon SRC1 RID interaction (ligand-heterodimer-TRPV6 VBS complex)
CCc1cc(C(CC)(CC)c2ccc(OCC(O)C(C)(C)C)c(C)c2)sc1C(=O)N[C@@H](C)C(=O)O (single isomer, unassigned) [Cmpd2, L-2-[(5-{1-Ethyl-1-[4-(2-hydroxy-3,3-dimethyl-butoxy)-3-methyl-phenyl]-propyl}-3-ethyl-thiophene-2-carbonyl)-amino]-propionic acid]	~ 6%	~ 9%	~ 20%	19%			
CCC(CC)(c1ccc(OCC(O)C(C)(C)C)c(C)c1)c1ccc(C(=O)N(C)CC(=O)O)c(C)c1 (stereo not drawn) [Cmpd1, [(4-{1-ethyl-1-[4-(2-hydroxy-3,3-dimethyl-butoxy)-3-methyl-phenyl]-propyl}-2-methyl-benzoyl)-methyl-amino]-acetic acid]			~ 11%	21%			
CCC(CC)(c1ccc(OCC(O)C(C)(C)C)c(C)c1)c1cc(C)c(C(=O)Nc2nnn[nH]2)s1 (stereo not drawn) [Cmpd3, 3'-[4-(2-hydroxy-3,3-dimethylbutoxy)-3-methylphenyl]-3'-[5-(tetrazol-5-yl-aminocarbonyl)-4-methylthiophen-2-yl]pentane]					~ 13%	~ 20%	~ 9%
